Measured values as given in publication PMC8451604, “Rational formulation engineering of fraxinellone utilizing 6-O-α-D-maltosyl-β-cyclodextrin for enhanced oral bioavailability and hepatic fibrosis therapy” (Drug Delivery, 2021).
≈ marks a conversion by molar mass, not a printed value. Entries after “also recorded” stand apart in the source; their conditions may differ.

Experiments:
[1] = Solubility of Frax in various solubilizers (50% solution); type: physicochemical; details: 37 °C
Protocol: Excess Frax was added into Solutol HS 15, Tween 80, PEG 400, Transcutol P, β-CD, SBE-β-CD, HP-β-CD, and G2-β-CD solution (50%), respectively. The samples were vortexed followed by incubation in a shaker (120 rpm, 37 °C) for 72 h. After the process, the samples were centrifuged to separate the supernatant containing dissolved Frax. After suitable dilution and filtration, Frax concentration in the supernatant was analyzed by the HPLC method.

[2] = Stability of Frax in homogenates of gastrointestinal segments; type: in vitro ADME, rats; details: rat GI segment homogenates, 37 °C
Protocol: GI segments (the stomach, duodenum, jejunum, ileum, and colon) were immediately isolated after the rats were sacrificed. Thereafter, the mucosa of each segment was homogenized and centrifuged following gently scraping. The supernatant was separated and subjected to BCA protein quantitative kit to adjust the final protein concentration to 1 mg/mL. DMSO solution of Frax (5 mg/mL) was added in the homogenate to achieve a final drug concentration of 20 μg/mL. After incubation at 37 °C for predetermined durations, samples were immediately precipitated by methanol, centrifuged, and injected into HPLC to measure the Frax concentration. The drug concentration measured before the incubation was set to 100%.

[3] = Stability of Frax in artificial gastrointestinal fluid (SGF/SIF); type: physicochemical; details: SGF/SIF with or without enzymes, 37 °C
Protocol: The stability studies were performed according to the previous study (Zhang et al., [2015]). Briefly, 20 μL of DMSO solution of Frax (10 mg/mL) was added to 10 mL of simulated gastric fluid (SGF) or simulated intestinal fluid (SIF) containing pepsin/without pepsin. Afterward, the samples were placed in a shaker (100 rpm, 37 °C). At predetermined timepoints, a suitable amount of samples were withdrawn and mixed with methanol. After a thorough vortex, the mixture was centrifuged and the resulted supernatant was subjected to HPLC to determine Frax content.

[4] = Oral bioavailability / pharmacokinetic study; design: species or system Male Wistar rats; details: male, Wistar, rat, in vivo
Protocol: Pharmacokinetic studies were conducted in Male Wistar rats (180–220 g) supplied by the Center of laboratory animals, Zhengzhou University. The Use Committee of Zhengzhou University (IRB0000861) approved the experimental protocol. In addition, all animal experiments were conducted according to the Guidelines of Animal Experimentation of the Laboratory Animal Center. Rats were acclimatized before experiments and provided free access to food and water.
Rats divided into five groups at random (n = 5) were dosed with the following formulations: intravenous administration of Frax ([…]) or orally given Frax suspension (150 mg/kg) or SBE-β-CD-Frax, HP-β-CD-Frax, and G2-β-CD-Frax (150 mg/kg), respectively. Blood (0.4 mL) was obtained by orbital sinus collection at 0.17, 0.25, 0.75, 1, 1.5, 2, 4, 6, 8, and 10 h post-administration. To determine Frax concentration in plasma, 200 μL methanol, 100 μL acetonitrile, and 20 μL 5% hydrochloric acid were added to rat plasma (100 μL) gradually. Following vortexing and centrifugation (4024.8 g, 10 min), the supernatant was collected, dried by air blowing at room temperature, and reconstituted with 150 μL of the mobile phase. The samples were sonicated and vortexed until homogeneity. After centrifugation, the supernatant (50 μL) was aspirated and injected into HPLC. The standard curve encompassed a linear range of 0.05–10 μg/mL and was used to calculate Frax concentration in plasma. Pharmacokinetic parameters were calculated using DAS software version 3.0 and reported as mean ± standard deviation. The oral absolute and relative bioavailability (Fa and Fr) were calculated using the following Equations (3) and (4): (3) Fa(%)=AUC^testDose^i.v/AUC^i.vDose^test (4) Fr(%)=AUCtest/AUCreference where AUC is the area under the pharmacokinetic curves

solubility at 72 h ([1]; 50% (w/v) G2-β-CD solution in water): 12.7 mg/mL (≈ 54.8 mM)
Frax solubility in G2-β-CD solution relative to water ([1]; 50% (w/v) G2-β-CD solution vs water): 160 times
degradation in GI homogenates [2]: negligible degradation
bioavailability [4]: 0.5%
AUC(0-inf) ([4]; iv, 10 mg/kg): 11800 ± 1430 ng·h/mL
AUC(0-inf) ([4]; po, 150 mg/kg): 970 ± 230 ng·h/mL
Cmax ([4]; po, 150 mg/kg): 490 ± 290 ng/mL
Tmax ([4]; po, 150 mg/kg): 1 ± 0.35 h
SMILES: CC1=C2C(=O)O[C@@H](c3ccoc3)[C@]2(C)CCC1 [Frax, Fraxinellone]
degradation in simulated GI fluids [3]: rather stable; also recorded: negligible degradation
